In brackets after ≈: the same amount, converted by molar mass. Like-named read-outs stand apart in the source and are kept apart here. No end group written: not given here.
Key:
C. albicans sp3903 [1] = assay: microbe, parasite or virus in culture; conditions: Candida albicans, SP3903, 48 h
C. albicans 17546 [2] = assay: microbe, parasite or virus in culture; conditions: Candida albicans, 17546, 48 h
C. albicans 58288 [3] = assay: microbe, parasite or virus in culture; conditions: Candida albicans, 58288, 48 h
C. albicans sp3931 [4] = assay: microbe, parasite or virus in culture; conditions: Candida albicans, SP3931, 48 h
C. albicans sp3902 [5] = assay: microbe, parasite or virus in culture; conditions: Candida albicans, SP3902, 48 h
[6] = test system: C. tropicalis cgmcc 2.1975; assay: Antifungal activity assay (broth microdilution, MIC/MFC); assay type: cell-based, Candida tropicalis; conditions: for MFC: 50 μl of MIC wells plated on YPD agar, 28°C, lowest concentration that completely killed fungal cells, consensus of at least three independent experiments
C. albicans 56214 [7] = assay: microbe, parasite or virus in culture; conditions: Candida albicans, 56214, 48 h
C. albicans 56452 [8] = assay: microbe, parasite or virus in culture; conditions: Candida albicans, 56452, 48 h
C. albicans 14936 [9] = assay: microbe, parasite or virus in culture; conditions: Candida albicans, 14936, 48 h
C. albicans cgmcc 2.2086 = assay: Antifungal activity assay (broth microdilution, MIC/MFC); assay type: cell-based, Candida albicans; conditions: for MFC: 50 μl of MIC wells plated on YPD agar, 28°C, lowest concentration that completely killed fungal cells, consensus of at least three independent experiments
C. albicans sp3876 [10] = assay: microbe, parasite or virus in culture; conditions: Candida albicans, SP3876, 48 h
[11] = test system: C. parapsilosis cgmcc 2.3989; assay: Antifungal activity assay (broth microdilution, MIC/MFC); assay type: cell-based, Candida parapsilosis; conditions: for MFC: 50 μl of MIC wells plated on YPD agar, 28°C, lowest concentration that completely killed fungal cells, consensus of at least three independent experiments
C. albicans sp3902 [12] = conditions: sp3902, 48 h; for MIC: pH 7
C. albicans 58288 [13] = conditions: 58288, 48 h; for MIC: pH 7
PMEC cells = conditions: 24 h
C. albicans 14936 [14] = conditions: 14936, 48 h; for MIC: pH 7
C. albicans sp3903 [15] = conditions: sp3903, 48 h; for MIC: pH 7
C. albicans 56214 [16] = conditions: 56214, 48 h; for MIC: pH 7
C. albicans sp3931 [17] = conditions: sp3931, 48 h; for MIC: pH 7
C. albicans sp3876 [18] = conditions: sp3876, 48 h; for MIC: pH 7
C. albicans 17546 [19] = conditions: 17546, 48 h; for MIC: pH 7
C. albicans 56452 [20] = conditions: 56452, 48 h; for MIC: pH 7
IPEC-J2 cells = conditions: 24 h

## C[C@@H]1[C@H](O)[C@@H](C)/C=C/C=C/C=C/C=C/C=C/C=C/C=C/[C@H](O[C@@H]2O[C@H](C)[C@@H](O)[C@H](N)[C@@H]2O)C[C@@H]2O[C@](O)(C[C@@H](O)C[C@@H](O)[C@H](O)CC[C@@H](O)C[C@@H](O)CC(=O)O[C@H]1C)C[C@H](O)[C@H]2C(=O)O [AmB, amphotericin B]
C. albicans sp3903 [1]
  MFC: 1 µM (≈ 0.924 µg/mL)
C. albicans sp3903 [1]; pH 7
  MIC: 0.13 µM (≈ 0.12 µg/mL)
C. albicans 17546 [2]
  MFC: 1 µM (≈ 0.924 µg/mL)
C. albicans 17546 [2]; pH 7
  MIC: 0.25 µM (≈ 0.231 µg/mL)
C. albicans 58288 [3]
  MFC: 1 µM (≈ 0.924 µg/mL)
C. albicans 58288 [3]; pH 7
  MIC: 0.5 µM (≈ 0.462 µg/mL)
C. albicans sp3931 [4]
  MFC: 1 µM (≈ 0.924 µg/mL)
C. albicans sp3931 [4]; pH 7
  MIC: 0.25 µM (≈ 0.231 µg/mL)
C. albicans sp3902 [5]
  MFC: 1 µM (≈ 0.924 µg/mL)
C. albicans sp3902 [5]; pH 7
  MIC: 0.25 µM (≈ 0.231 µg/mL)
[6]; Candida tropicalis, CGMCC2, 48 h
  MFC: 2 µM (≈ 1.85 µg/mL)
[6]; Candida tropicalis, CGMCC2, broth microdilution, RPMI-MOPS pH 7.0, 28°C, 48 h, lowest concentration inhibiting 99% of growth (A492)
  MIC: 1 µM (≈ 0.924 µg/mL)
C. albicans 56214 [7]
  MFC: 2 µM (≈ 1.85 µg/mL)
C. albicans 56214 [7]; pH 7
  MIC: 1 µM (≈ 0.924 µg/mL)
C. albicans 56452 [8]
  MFC: 2 µM (≈ 1.85 µg/mL)
C. albicans 56452 [8]; pH 7
  MIC: 1 µM (≈ 0.924 µg/mL)
C. albicans 14936 [9]
  MFC: 0.5 µM (≈ 0.462 µg/mL)
C. albicans 14936 [9]; pH 7
  MIC: 0.25 µM (≈ 0.231 µg/mL)
C. albicans cgmcc 2.2086; Candida albicans, CGMCC2, 48 h
  MFC: 1 µM (≈ 0.924 µg/mL)
C. albicans cgmcc 2.2086; Candida albicans, CGMCC2, broth microdilution, RPMI-MOPS pH 7.0, 28°C, 48 h, lowest concentration inhibiting 99% of growth (A492)
  MIC: 1 µM (≈ 0.924 µg/mL)
C. albicans sp3876 [10]
  MFC: 0.5 µM (≈ 0.462 µg/mL)
C. albicans sp3876 [10]; pH 7
  MIC: 0.25 µM (≈ 0.231 µg/mL)
[11]; Lodderomyces parapsilosis, CGMCC2, 48 h
  MFC: 2 µM (≈ 1.85 µg/mL)
[11]; Lodderomyces parapsilosis, CGMCC2, broth microdilution, RPMI-MOPS pH 7.0, 28°C, 48 h, lowest concentration inhibiting 99% of growth (A492)
  MIC: 2 µM (≈ 1.85 µg/mL)

## KIGKFLLFKGIKKIGKFL-NH2 [KF3]
C. albicans sp3902 [12]
  MFC: 16 µM
  MIC: 16 µM
C. albicans 58288 [13]
  MFC: 32 µM
  MIC: 32 µM
PMEC cells
  IC50: 60 µM
C. albicans 14936 [14]
  MFC: 64 µM
  MIC: 64 µM
C. albicans sp3903 [15]
  MFC: 32 µM
  MIC: 32 µM
C. albicans 56214 [16]
  MFC: 16 µM
  MIC: 16 µM
C. albicans sp3931 [17]
  MFC: 32 µM
  MIC: 32 µM
[6]; 48 h
  MFC: 8 µM
[6]; cgmcc 2.1975, 48 h, pH 7
  MIC: 8 µM
C. albicans sp3876 [18]
  MFC: 64 µM
  MIC: 64 µM
C. albicans 17546 [19]
  MFC: 64 µM
  MIC: 64 µM
C. albicans 56452 [20]
  MFC: 16 µM
  MIC: 16 µM
C. albicans cgmcc 2.2086; 48 h
  MFC: 32 µM
C. albicans cgmcc 2.2086; cgmcc 2.2086, 48 h, pH 7
  MIC: 32 µM
IPEC-J2 and PMEC cells
  cytotoxicity at 64 μM (in words): sharp rise in cytotoxicity
IPEC-J2 cells
  IC50: 48.5 µM
Human erythrocytes; red cells of human, 1 h
  HC10: >64 µM
[11]; 48 h
  MFC: 32 µM
[11]; cgmcc 2.3989, 48 h, pH 7
  MIC: 32 µM

## RIGRFLLFRGIRRIGRFL-NH2 [RF3]
C. albicans sp3902 [12]
  MFC: 8 µM
  MIC: 8 µM
C. albicans 58288 [13]
  MFC: 8 µM
  MIC: 8 µM
PMEC cells
  IC50: 54 µM
C. albicans 14936 [14]
  MFC: 8 µM
  MIC: 8 µM
C. albicans sp3903 [15]
  MFC: 8 µM
  MIC: 8 µM
C. albicans 56214 [16]
  MFC: 8 µM
  MIC: 4 µM
C. albicans sp3931 [17]
  MFC: 8 µM
  MIC: 8 µM
[6]; 48 h
  MFC: 8 µM
[6]; cgmcc 2.1975, 48 h, pH 7
  MIC: 8 µM
C. albicans sp3876 [18]
  MFC: 4 µM
  MIC: 4 µM
C. albicans 17546 [19]
  MFC: 16 µM
  MIC: 8 µM
C. albicans 56452 [20]
  MFC: 8 µM
  MIC: 8 µM
C. albicans cgmcc 2.2086; 48 h
  MFC: 8 µM
C. albicans cgmcc 2.2086; cgmcc 2.2086, 48 h, pH 7
  MIC: 8 µM
IPEC-J2 and PMEC cells
  cytotoxicity at 64 μM (in words): sharp rise in cytotoxicity
IPEC-J2 cells
  IC50: 59.8 µM
Human erythrocytes
  HC10: > 64 µM
[11]; 48 h
  MFC: 16 µM
[11]; cgmcc 2.3989, 48 h, pH 7
  MIC: 16 µM
